Results reported in patent US20220193060A1, “Inhibition of IL-1 Induced Inflammation” (THIOLAB, LLC., priority 2019, published 2022).
“Also recorded” adds a separate entry of the source.

Tests used:
THP-1 cells = experiment: Cell viability of CPDS-treated THP-1 cells; type: cell-based, human
Experimental: (§1) Methodology: The study included replicated tests of IL-1β levels with and without CPDS, as well as reference testing of untreated cells and cells treated with lactoferrin and clobetasol. A third test was conducted of IL-1 receptor […] (IL-1RA) receptor, to assist in distinguishing whether reductions in IL-1β levels were associated with secretion or receptor blocking (via the receptor antagonist). Cell viability studies were conducted for both sets of tests. 1. THP-1 cells were grown in (RPMI+10% FBS, 10 mM HEPES, 1 mM Sodium Pyruvate, and 0.05 mM 2-Mecaptpethanol) to P8. 2. Cells were plated at 30,000 cells per well in 120 ul with Media+20 ng/ml PMA+2× Genta. 3. […] Cells were treated according to plan below. 5. Cells were incubated for three more days at 37° C. and 5% CO2. 6. Cell supernatant were collected and ELISA was measured for IL-1RA, IL-1α, and IL-1β. 7. Plate was read at 490 nm until O.D reached 1.5.

IL-1RA = experiment: human IL-1RA (receptor antagonist) ELISA, THP-1 supernatant; type: cell-based
Experimental: as §1, with “1.5. In order to determine whether the reduction in IL-1β was from blocking of secretion or from blocking of the receptor, a human IL-1RA (receptor antagonist) ELISA test was performed.” for “1.5.”

[1] = tested on: non-malignant intraductal breast hyperplasia; experiment: Case: oral CPDS for breast hyperplasia; type: in vivo, human
Experimental: An individual, diagnosed with non-malignant intraductal breast hyperplasia on the upper left quadrant of the left breast was treated with CPDS. […] CPDS was administered in 99.7% pure form in capsules without excipients.

arthritic psoriasis = experiment: Case: oral CPDS for arthritic psoriasis; type: in vivo, human; conditions: oral 140 mg/day, 4 days a week
Experimental: The patient was a person. Their disease began 1 year previously. Their main complaint was pain in their right wrist, which prevented them from using their right hand and arm; they had bothersome itching cutaneous psoriatic lesions. Treatment at the time consisted of cortisone (5 mg/day) and non-steroidal anti-inflammatory drugs and weekly administrations of methotrexate (MTX) 5 mg/week. The side effects of MTX were severe stomach, throat, and mouth lesions, nightmares, visual hallucinations, and dizziness. The patient began taking oral CPDS 90 days previous (140 mg/day), 4 days a week. Within a few days, the side effects of MTX became much milder, and their immune defenses increased. Instead of catching a cold, as they had often, that lasted for weeks and needed antibiotics, their colds were much more brief normal duration.

colonic polyps = experiment: Case: oral CPDS for colonic polyps; type: in vivo, human; conditions: person; oral 140 mg per day; 1, 3, 9, and 10 months
Experimental: An individual was diagnosed with colon neoplasia. About one month after the initial diagnosis, the individual underwent semi colotomy at which time about 45 cm of their colon was removed. […] The polyps were cauterized at that time. About one month later, the individual began treatment with CPDS which was administered orally at a dose of 140 mg per day.

IL-6 = experiment: LPS-stimulated macrophages, IL-6 ELISA; type: cell-based, murine
Experimental: (§2) An in vitro model of inflammation mediated by macrophages is used. Primary macrophages isolated from humans or non-human species (e.g., mice or rats) were used. A murine macrophage cell line RAW264.7 (CCRL-2278) was also used. Macrophages are treated with CPDS. […] Then the effect of CPDS on inflammation is assessed by comparing the levels of […] mediators IL-6 and IL-10. IL-10 and IL-6 were determined by ELISA. The level of IL-6 and IL-10 were compared to the level prior to CPDS treatment.

IL-10 = experiment: LPS-stimulated macrophages, IL-10 ELISA; type: cell-based, murine; conditions: CPDS (e.g., 50 μM) 90 minutes before LPS (10 ug/ml), 24 to 48 hours
Experimental: as §2

IP-10 = experiment: LPS-stimulated RAW 264.7 cells, IP-10 secretion; type: cell-based; conditions: murine RAW 264.7 cells, pre-treatment prior to LPS
Experimental: An in vitro model of inflammation mediated by macrophages is used. […] A murine macrophage cell line RAW264.7 (CCRL-2278) was also used. Macrophages are treated with CPDS. […] Then the effect of CPDS on inflammation is assessed by comparing the levels of anti-inflammatory mediators IL-6 and IL-10. IL-10 and IL-6 were determined by ELISA. The level of IL-6 and IL-10 were compared to the level prior to CPDS treatment. […] In addition we measured decrease in the secretion of IP-10.

RAW 264.7 cells = experiment: Cell viability of RAW 264.7 cells; type: cell-based; conditions: murine RAW 264.7 cells
poison oak = experiment: Case: topical CPDS for poison oak exposure; type: in vivo, human
Experimental: An individual was exposed to poison oak on their left arm through physical contact. They developed a rash and other symptoms of inflammation such as redness, itching, burning sensation, and swelling. The individual was treated using topical application a cream containing 1% CPDS by weight. The cream was applied every two hours on the first day, and thereafter two to three times a day. The cream contained water, mineral oil, stearic acid, triethanolamine, propylene glycol, glyceryl stearate, stearyl alcohol, dirnethicone, isopropyl palmitate, cetyl alcohol, lactic acid, retinyl acetate, tocopheryl acetate, hydrolyzed collagen, fragrance, methylparaben, and O&C red #33. The individual was treated alternatively with 1% CPDS by weight in an ointment containing white petroleum and mineral oil.

[2] = cited from earlier work
[3] = IV doses up to 300 mg/kg (1 mM)

O=C(O)c1ccc(SSc2ccc(C(=O)O)cn2)nc1 [CPDS, 6,6′-dithiodinicotinic acid]
cell viability (THP-1 cells; 200 μM): slight decline in viability | cell viability (THP-1 cells; all CPDS concentrations except 200 μM, both tests): ≥ 100% | reduction of IL-1RA (IL-1RA; 100 μM): 60% | reduction of IL-1RA (IL-1RA; 200 μM): 76% | effect on IL-1RA production (IL-1RA; all concentrations lower than 100 μM): did not affect; also recorded: no effect | pain in breast and axilla ([1]; after commencing oral 140 mg per day): subsided within two days | pain following discontinuation of CPDS ([1]; after discontinuation): returned within two to three days | side effect ([1]; oral 140 mg per day): No side effect | growth of breast hyperplasia (mammograms) ([1]; person, oral 140 mg per day, forty-eight months): stopped growing | immune defenses (arthritic psoriasis): increased | function of right hand and wrist (arthritic psoriasis; 90 days): regained function | side effects of MTX (arthritic psoriasis; person, within a few days): much milder | growth of polyps at check-up visits (colonic polyps): no new growth | IL-6 levels / expression (IL-6; FIG. 3, macrophages inflamed by LPS, dosage series of CPDS): dramatically reduced; also recorded: concentration dependent diminution | expression level of IL-6 (IL-6; macrophages, CPDS (e.g., 50 μM) 90 minutes before LPS (10 ug/ml), 24 to 48 hours): dramatically reduced | activity on IL-6 compared with DEX (IL-6; murine RAW 264.7 cells, LPS): more active | secretion of IL-6 (IL-6; murine RAW 264.7 cells, pre-treatment prior to LPS): drastically reduced | expression level of IL-10 (IL-10): dramatically reduced | secretion of IP-10 (IP-10): decrease | cytotoxicity (cell viability) (RAW 264.7 cells): no cytotoxicity | itching and burning (poison oak; person, topical cream or ointment with 1% CPDS by weight): dissipated immediately | recurrence of symptoms (poison oak; topical 1% CPDS by weight): did not recur | redness and swelling (poison oak; topical 1% CPDS by weight): disappeared in about one week | spread of rash to other parts of the body (poison oak; topical 1% CPDS by weight): did not spread | kidney or liver weight [2, 3]: slight increase | lethality [2, 3]: not fatal | tolerability ([2]; doses up to 300 mg/kg (1 mM) intravenous): tolerated
